The record followed here is patent publication US10849875B2, “Cancer specific lipid targeted peptidomimetics” (University of Houston System, priority 2015, dated 2020).

“Also recorded” adds a separate entry of the source. Positions of bridges follow the written chain, without caps; N, C: chain ends. Non-standard residues stand in square brackets, D forms with d. Residues, ends and D or L forms follow the SMILES beside them. Chains are numbered I, II in the order given. Gly(N-piperonyl) = O=C(O)CNCc1ccc2c(c1)OCO2; N(4-MeOBn)Gly = COc1ccc(CNCC(=O)O)cc1; Nrpe = C[C@@H](NCC(=O)O)c1ccccc1; Nlys = NCCCCNCC(=O)O

One data set relates to HCC4017 cells. Put plainly: FACS binding assay. On the set-up: species or system human. On the procedure: FACS binding assays were conducted to further quantify the binding event of the PPS1 monomer and PPS1D1 dimer.
Background: Flow cytometry measures light scatter and fluorescence of single cells or particles in a stream.

A short description of data set [1]: Membrane lipid array (lipid dot blot). The class given is binding. On the procedure: (FIGS. 11A and 11B). […] All of the bound lipids PS, PA, PI and PG have an overall negative charge as compared to unbound PC, PE and SM, which are neutral. This extra negative charge is responsible for interacting with positively charged region of PPS1, while the hydrophobic regions of both PPS1 and lipids may interact through van der Waals forces. […] The membrane was first blocked with 3% BSA in TBS-T for 1 hr. After washing with TBS-T, 2.5 μg/ml of biotin labeled PPS1D1 was added. Binding of biotin-PPS1D1 was detected by immunoblotting with streptavidin-HRP antibody. […] The binding affinity of PPS1D1 to PS appears to be strongest among all phospholipids as even at low lipid concentrations, PPS1D1 efficiently binds to it. (FIG. 11D). […] It is well documented that these phospholipids are predominantly present in the inner leaflet in normal cells. […] PC, PE, SM and PS are the most abundant phospholipids. Among these, only PS is an anionic phospholipid. PC and SM are present mostly in the outer leaflet, whereas PE and PS occupy most of inner leaflet with a variety of other anionic phospholipids. However, in stress conditions and in most tumor studied to date, PS and PE flip to the outer leaflet. PPS1D1 has six positively charged residues along with a hydrophobic region. […] However the binding affinity of PPSD1 to these anionic phospholipids is different. […] PPS1D1 could have a structure beyond a simple linear sequence contributing various levels of binding to PS, PA, PI and PG, maintaining highest binding affinity to PS.
Membrane lipid array: Membrane lipid arrays were purchased from Echelon Biosciences. Membranes were blocked in 3% BSA in TBS-T for one hour then incubated with 2.5 μg/ml of biotin-PPS1D1 for two hours. After washing unbound peptoid using TBS-T, bound biotin-PPS1D1 was detected by immunoblotting with Streptavidin-HRP antibody at 1:750 dilution (BioLegend).
One of the major questions arising at this point is how PPS1 or PPS1D1 specifically recognizes PS over PC, as both lipids have negatively charged phosphate head groups. To address this specificity concern, ELISA-like binding assay were expanded to include other membrane phospholipids such as phosphatidylethanolamine (PE), sphingomyelin (SM), phosphatidic acid (PA), phosphatidylinositol (PI) and phosphatidylglycerol (PG). […] This additional negative charge can be responsible for the interaction with the positively charged region of PPS1 or PPS1D1, while the hydrophobic regions of PPS1 or PPS1D1 may interact with hydrophobic tail groups of the lipids through van der Waals forces. […] The membrane was treated with biotin labeled PPS1D1 and binding was detected by immunoblotting with streptavidin-HRP. […] It has been reported that PS can form a bilayer lamellar and reverse hexagonal phase. PS is mainly in a lamellar phase after hydration at physiological pH. By validating our binding through an ELISA-like assay and liposomes, PPS1D1 has an equal opportunity to bind to each phase of PS.
Membrane lipid arrays were purchased from Echelon Biosciences, UT. Membranes were blocked in 3% BSA in TBST for 1 hour and then incubated with 2.5 μg/ml of biotin-PPS1D1 for 2 hours. Membranes were washed with TBST and incubated with Streptavidin-HRP antibody at 1:750 dilutions (BioLegend,CA). After washing, signal was detected with ECL western blotting substrate (Life technologies, CA) using Fluorchem 8900 (Alpha Innotech Imaging system).

A further data set deals with HBEC30KT cells. The data set is described as follows: Cell staining with Hoechst 33342 and propidium iodide (membrane integrity). The class given is cell-based, human. Particulars: 20 μM. On the procedure:
(§1) It was evaluated how PPS1D1 affects viability of these PS expressing cancer cell lines. While there are difficulties of narrowing down the exact mechanism of action of a compound targeting cell membrane lipids, whether PPS1D1 has any effect on cell membrane integrity was evaluated. Cells were treated with standard DNA staining dyes Propidium iodide (PI) and Hoechst 33342. While both bind DNA, only Hoechst is cell permeable. Therefore, when treating live cells only Hoechst will stain the nucleus while PI will stain the nucleus only if the cell membrane integrity is compromised. All the lung cancer cell lines and normal HBEC30KT cells were treated with these dyes in the presence of PPS1D1 (at 1 μM and 20 μM) or a control compound PC462D1 at 20 μM and evaluated fluorescence by microscopy without fixation. […] These observations indicate that 20 μM PPS1D1 is selectively cytotoxic to PS-positive lung cancer cells.
(§2) 10,000 cells of HCC4017, H460, HCC95, H1693,H1395 and HBEC30KT were plated on chamber slides (Lab-Tek, Thermo Fisher, MA). On second day, cells were treated with PPS (1 μM and 20 μM), control PC462D1 (20 μM) and 0.005% Benzalkonium chloride (BAC) in RPMI medium with 10% FBS containing 3% BSA (KSFM media with 3% BSA for HBEC30KT). Chamber slides were washed with PBS three times. Cells were then stained with Hoechst 33342 (10 μg/ml) for 30 min in dark. Chamber slides were washed with 3× PBS. Cells were then stained with propidium iodide (1 mg/ml) for 15 mins. Cells were washed with 3× PBS and imaged using Fluorescence Microscope (Olympus BX-53).

The test system of data set [2] is HCC4017, H460, HCC95, H1693, H1395 lung cancer cell lines. Described as above. The class given is cell-based, human. On the procedure:
as §1, §2

The next data set is described as follows: MTD studies of PPS1D1. Particulars: mouse, in vivo. More on the design: species or system mice. On the procedure:
[…] (MTD) studies were performed by injecting PPS1D1 into mice. […] In vivo localization studies were performed with biotinylated versions of PPS1D1 and PC462D1. Animals were injected intravenously with 100 μL of biotinylated PPS1D1 or PC462D1 (500 μg/mL) and sacrificed at 1 and 4 h post injection. Tissue was collected, snap frozen, and sectioned and the presence of the PPS1D1 and PC462D1 determined by streptavidin-Cy3.

The subject of data set [3] is HCC4017, H460, H358, H441, H1819, H1993, H2122, MD-MB-231 and PC3 cells. The data set is described as follows: In vitro cancer cell killing (MTS cell viability assays and FACS studies). The class given is cell-based, human. Particulars: lung, breast and prostate cancer cells. An excerpt:
Various derivatives of PPS1 have been developed that have similar and improved activities. FIGS. 15-22, 36-51.

Where [4] appears, read: 2.5 μg/ml biotin labeled PPS1D1.
The mark [5] stands for this setting: 2.5 μg/ml biotin labeled PPS1D1, listed as PPSD1.

Experimental for H460 cells: Before moving to animal studies with PPS1D1, comprehensive validation of cytotoxic effect of PPS1D1 on H460 was performed (Fig: 13). The PS expression levels of H460 using FITC-Annexin V staining detected by FACS was checked. […] A magnetic bead pull down, cell proliferation assay, and flow cytometry were performed on the H460 cell line. PPS1D1 coated magnetic beads were incubated with the H460 cell line for 30 minutes. The supernatant was removed by immobilizing beads on side of the tube with a magnet. The number of cells bound to beads were counted with a hemocytometer. […] Cell proliferation assays on a H460 cell line were performed by treating them with PPS1D1, PPS1, and the control compound, PC462D1. […] Binding and cytotoxicity of fluoresceinated PPS1D1 was examined using flow cytometry. Efficiency of PPS1D1 cytotoxicity on H460 cancer cells at different concentrations with 1 hour incubation with PPS1D1 was examined. Assays were performed to determine whether there were cells that were double positive for FITC (bound to PPS1D1) and PI, to evaluate cell viability. […]
Experimental procedure 10: MTS viability assay on H460 cells. […] On day 5, 20 μl of CellTiter 96® AQueous One Solution Cell Proliferation Assay (Promega, Wis.) was added to each well and absorbance was measured at 490 nm using a plate reader 2 hours after treatment.

Consider `COc1ccc(CN(CC(=O)N(CCCCN)CC(=O)N[C@@H](CCCCN)C(=O)N[C@H](CCCCN)C(=O)N[C@@H](CCSC)C(=O)NCCCC[C@H](NC(=O)[C@H](CCSC)NC(=O)[C@@H](CCCCN)NC(=O)[C@H](CCCCN)NC(=O)CN(CCCCN)C(=O)CN(Cc2ccc(OC)cc2)C(=O)CN(C(=O)CN(Cc2ccc3c(c2)OCO3)C(=O)CN[C@H](C)c2ccccc2)[C@H](C)c2ccccc2)C(N)=O)C(=O)CN(C(=O)CN(Cc2ccc3c(c2)OCO3)C(=O)CN[C@H](C)c2ccccc2)[C@H](C)c2ccccc2)cc1` [PPS1D1] (I: H-[Nrpe][Gly(N-piperonyl)][Nrpe][N(4-MeOBn)Gly][Nlys]K[dK]MK-NH2 / II: H-[Nrpe][Gly(N-piperonyl)][Nrpe][N(4-MeOBn)Gly][Nlys]K[dK]M; amide I:9-II:C; N-terminus assumed), for which the “improvement of binding of dimeric version over PPS1” value in the data set on HCC4017 cells is listed as “about 175 fold”. In the data set with HCC4017 cells (FACS), this molecule registered a Kd of 80 nM. Also, in data set [1] (setting [4]), the “binding to DAG” value is on record as “did not show binding; also recorded: does not bind”, the “binding to PA” value is “a little weaker binding”, the “binding to PC” value was “does not bind” and the “binding to PE” value is “does not bind”. Besides, in data set [1] (setting [4]), the “binding to PG” value is on record as “weaker binding”, the “binding to PI” value is given as “weaker binding”, the “binding to PS” value is “strongest binding affinity” and the “binding to SM” value was “does not bind”. Moreover, in data set [1] (setting [5]), the “binding to PC” value is on record as “clearly not binding”, the “binding to PE” value is reported as “clearly not binding”, the “binding to PG” value is listed as “very weak level” and the “binding to PI” value is given as “very weak level”. Further, the “binding to SM” value in data set [1] (setting [5]) is on record as “clearly not binding”. Besides, in the data set with HBEC30KT cells, the “PI staining of normal HBEC30KT cells” value is listed as “not observed”. Besides, the “PI / Hoechst staining of lung cancer cells” value in data set [2] (1 μM) is recorded as “only show staining with Hoechst dye”. Also, in data set [2] (20 μM), the “PI / Hoechst staining of lung cancer cells” value is given as “staining of cells with PI”. In the data set “MTD studies of PPS1D1” (mice bearing subcutaneous HCC4017 xenografts), this molecule registered an MTD of 1 mg/kg. Also, the MTD in “MTD studies of PPS1D1” (nontumor bearing animals) came out at 5 mg/kg. Also, the “in vitro cancer cell killing activity” value in data set [3] is “strong in vitro cancer cell killing activity”. The “effect on H460 cells” value with H460 cells (MTS / cell proliferation, increasing concentrations) is given as “very potent in inhibiting growth”. Moreover, the “concentration at which most cytotoxicity was seen” value in the data set with H460 cells (cell proliferation assay, H460) was ≥ 10 µM.

The Kd is the equilibrium constant for the complex coming apart. Low readings indicate tighter binding, high ones weaker binding.
